Test results: patent US9115159B2, “Phosphate compounds, a process for their preparation and pharmaceutical compositions containing them” (LES LABORATOIRES SERVIER, priority 2013, dated 2015)

How the values were obtained:
human Caco-2 cells = assay: In vitro test on human Caco-2 cells, cellular transport A to B; format: in vitro ADME; conditions: prodrug incubated, 120 minutes
Procedure: The cellular transport from A to B (Apical to Basolateral) of the phosphate compounds of formula (I) and the compounds of formula (I′) (corresponding drugs) is studied in human Caco-2 cells. Each compound is deposited apically at 1 or 3 μM (in duplicate) and then incubated for 120 minutes.
Several samples are taken during the experiment; • apically: immediately after deposition (t=0) and at 120 minutes • basolaterally: at the end of the experiment (120 minutes)
The concentrations of the phosphate compound (prodrug) and/or of its hydroxylated homologue (drug) are determined by liquid chromatography coupled with mass spectrometric detection (LC-MS/MS). The limit of quantification for both entities is 2 ng/mL.
The apparent permeability (Papp) and the predicted absorbed fraction (Fabs) in humans are calculated for the prodrug, for the drug after incubation of the prodrug and for the drug after incubation of the drug (Hubatsch et al, Nat Protoc. 2007; 2(9), 2111-2119).
The experiment yield, which corresponds to the ratio (in percent) of the total amount of compound found at the end of the experiment versus that incubated, is also calculated.

[1] = tested on: cleaved (activated) form of caspase 3; assay: Quantification of the cleaved form of caspase 3 in vivo (MSD ELISA, RS4;11 xenograft tumour lysates); set-up: species or system mice (SCID strain); conditions: Table 2, 25 mg/kg oral, sampling time 2 hours, treated versus control mice
Procedure: The ability of the compounds of formula (I′) to activate caspase 3 is evaluated in a xenograft model of RS4;11 leukaemia cells.
1×10^7 RS4;11 cells are grafted sub-cutaneously into immunosuppressed mice (SCID strain). 25 to 30 days after the graft, the animals are treated orally with the various compounds. After treatment, the tumour masses are recovered and lysed, and the cleaved (activated) form of caspase 3 is quantified in the tumour lysates.
The quantification is carried out using the “Meso Scale Discovery (MSD) ELISA platform” test, which specifically assays the cleaved form of caspase 3. It is expressed in the form of an activation factor corresponding to the ratio between the quantity of cleaved caspase 3 in the treated mice divided by the quantity of cleaved caspase 3 in the control mice.
The ability of the compounds of formula (I) to activate caspase 3 is evaluated in a xenograft model of RS4;11 leukaemia cells in accordance with the protocol given in Example A2.

Structure (SMILES) | Yield (experiment yield), the drug after incubation of the prodrug (human Caco-2 cells; corresponding drug measured) | Fabs (predicted absorbed fraction in humans), the drug after incubation of the prodrug (human Caco-2 cells; corresponding drug measured, A to B, 1 or 3 μM) | Yield (experiment yield), compound measured: the prodrug itself (human Caco-2 cells; total amount found at the end versus incubated) | Activation factor +/− S.E.M. [1]
Cc1c(C(=O)N(c2ccc(OP(=O)([O-])[O-])cc2)c2cc(C#N)n(C)c2)cc(-c2cc(Cl)ccc2C(=O)N2Cc3ccccc3C[C@H]2CN2CCOCC2)n1C.[Na+].[Na+] [Example 21, 4-[{[5-(5-Chloro-2-{[(3S)-3-(morpholin-4-ylmethyl)-3,4-dihydroisoquinolin-2(1H)-yl]carbonyl}phenyl)-1,2-dimethyl-1H-pyrrol-3-yl]carbonyl}(5-cyano-1-methyl-1H-pyrrol-3-yl)amino]phenyl disodium phosphate] | Yield (%) = 100 | Fabs (%) = 19 | Yield (%) = 0.83 | 55.2 +/− 6.2
Cc1c(C(=O)N(c2ccc(OP(=O)([O-])[O-])cc2)c2cnn(C)c2)cc(-c2cc(Cl)ccc2C(=O)N2Cc3ccccc3C[C@H]2CN2CCOCC2)n1C.[Na+].[Na+] [Example 24, 4-[{[5-(5-Chloro-2-{[(3S)-3-(morpholin-4-ylmethyl)-3,4-dihydroisoquinolin-2(1H)-yl]carbonyl}phenyl)-1,2-dimethyl-1H-pyrrol-3-yl]carbonyl}(1-methyl-1H-pyrazol-4-yl)amino]phenyl disodium phosphate] |  |  |  | 60.5 +/− 4.5
Cc1c(C(=O)N(c2ccc(OP(=O)([O-])[O-])cc2)c2cnn(C)c2)cc(-c2cc(F)ccc2C(=O)N2Cc3ccccc3C[C@H]2CN2CCOCC2)n1C.[Na+].[Na+] [Example 15, 4-[{[5-(5-Fluoro-2-{[(3S)-3-(morpholin-4-ylmethyl)-3,4-dihydroisoquinolin-2(1H)-yl]carbonyl}phenyl)-1,2-dimethyl-1H-pyrrol-3-yl]carbonyl}(1-methyl-1H-pyrazol-4-yl)amino]phenyl disodium phosphate] |  |  |  | 12.1 +/− 1.1
